Columns and labels:
[1] = test system: BaF3 cells expressing wildtype EGFR; experiment: Antiproliferative activity (MTT) against control BaF3 cells expressing wildtype EGFR; assay type: cell-based; conditions: Mus musculus, BAF3 parental cells
In short: (§1)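 Compounds were tested on BaF3 cells bearing target EGFR mutations and on control BaF3 cells with wildtype EGFR; viability was then determined by MTT.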

[2] = target: T1, BaF3 cells expressing the target EGFR mutations (Homo sapiens, UniProt P00533, T790M, cells depend on it, form not given); experiment: Antiproliferative activity (MTT) against BaF3 cells expressing the target EGFR mutations; assay type: cell-based; conditions: BAF3 EGFR DEL T790M PURO POOL cells, read-out: IC50, BAF3 EGFR DEL T790M PURO POOL
T1 construct: IC50, BAF3 EGFR DEL T790M PURO POOL; other: BAF3 EGFR DEL T790M PURO POOL cells, MTT; other: BAF3 EGFR DEL T790M PURO POOL cells; MTT
In short: as §1

[3] = target: T2, BaF3 cells expressing the target EGFR mutations (Homo sapiens, UniProt P00533, T790M/L858R, cells depend on it); experiment: as above; assay type: cell-based; conditions: BAF3 EGFR L858R-T790M PURO POOL cells, read-out: IC50, BAF3 EGFR L858R-T790M PURO POOL
T2 construct: IC50, BAF3 EGFR L858R-T790M PURO POOL; other: BAF3 EGFR L858R-T790M PURO POOL cells, MTT; IC50, BAF3 EGFR L858R-T790M PURO POOL; other: BAF3 EGFR L858R-T790M PURO POOL cells; MTT
T2 sequence (P00533 whole entry T790M/L858R): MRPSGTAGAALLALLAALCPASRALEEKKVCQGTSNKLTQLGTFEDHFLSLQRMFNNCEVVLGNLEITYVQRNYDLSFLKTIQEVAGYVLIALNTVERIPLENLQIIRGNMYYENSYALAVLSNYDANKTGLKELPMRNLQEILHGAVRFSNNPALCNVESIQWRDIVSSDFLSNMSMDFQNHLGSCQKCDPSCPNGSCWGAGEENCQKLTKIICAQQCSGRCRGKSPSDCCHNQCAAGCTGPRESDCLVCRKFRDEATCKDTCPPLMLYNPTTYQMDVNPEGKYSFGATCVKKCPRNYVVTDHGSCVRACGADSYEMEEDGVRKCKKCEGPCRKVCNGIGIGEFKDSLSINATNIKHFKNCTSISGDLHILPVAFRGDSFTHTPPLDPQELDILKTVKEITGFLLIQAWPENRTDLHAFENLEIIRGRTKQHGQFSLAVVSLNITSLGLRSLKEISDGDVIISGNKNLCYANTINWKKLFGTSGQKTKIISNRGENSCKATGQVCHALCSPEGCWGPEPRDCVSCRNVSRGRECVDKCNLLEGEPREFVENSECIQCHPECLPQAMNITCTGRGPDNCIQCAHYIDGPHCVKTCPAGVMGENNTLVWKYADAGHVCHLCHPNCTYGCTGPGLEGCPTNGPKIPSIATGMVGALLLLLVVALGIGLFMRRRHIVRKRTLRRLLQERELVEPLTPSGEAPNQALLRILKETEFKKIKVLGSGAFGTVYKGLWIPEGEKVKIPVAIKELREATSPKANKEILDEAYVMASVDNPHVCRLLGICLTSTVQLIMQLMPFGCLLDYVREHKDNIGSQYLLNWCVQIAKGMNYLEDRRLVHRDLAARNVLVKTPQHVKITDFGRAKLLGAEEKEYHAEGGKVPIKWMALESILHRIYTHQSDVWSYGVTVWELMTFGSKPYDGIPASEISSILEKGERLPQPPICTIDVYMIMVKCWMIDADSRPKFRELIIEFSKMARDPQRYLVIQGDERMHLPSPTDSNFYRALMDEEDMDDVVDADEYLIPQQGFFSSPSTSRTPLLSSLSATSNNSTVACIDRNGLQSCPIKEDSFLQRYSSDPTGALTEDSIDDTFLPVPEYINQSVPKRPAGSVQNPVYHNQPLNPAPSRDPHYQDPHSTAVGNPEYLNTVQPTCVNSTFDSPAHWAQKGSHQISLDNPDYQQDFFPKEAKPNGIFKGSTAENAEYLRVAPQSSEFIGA
In short: as §1

[4] = target: human EGFR (native sequence) (Homo sapiens, UniProt P00533); experiment: Kinase inhibitory activity against human EGFR (native sequence); assay type: biochemical; conditions: 10 pt curves, 3 μM top concentration, 10 μM ATP; read-out: IC50 for kinase inhibition, EGFR
Chain of human EGFR (native sequence) (P00533 25-1210): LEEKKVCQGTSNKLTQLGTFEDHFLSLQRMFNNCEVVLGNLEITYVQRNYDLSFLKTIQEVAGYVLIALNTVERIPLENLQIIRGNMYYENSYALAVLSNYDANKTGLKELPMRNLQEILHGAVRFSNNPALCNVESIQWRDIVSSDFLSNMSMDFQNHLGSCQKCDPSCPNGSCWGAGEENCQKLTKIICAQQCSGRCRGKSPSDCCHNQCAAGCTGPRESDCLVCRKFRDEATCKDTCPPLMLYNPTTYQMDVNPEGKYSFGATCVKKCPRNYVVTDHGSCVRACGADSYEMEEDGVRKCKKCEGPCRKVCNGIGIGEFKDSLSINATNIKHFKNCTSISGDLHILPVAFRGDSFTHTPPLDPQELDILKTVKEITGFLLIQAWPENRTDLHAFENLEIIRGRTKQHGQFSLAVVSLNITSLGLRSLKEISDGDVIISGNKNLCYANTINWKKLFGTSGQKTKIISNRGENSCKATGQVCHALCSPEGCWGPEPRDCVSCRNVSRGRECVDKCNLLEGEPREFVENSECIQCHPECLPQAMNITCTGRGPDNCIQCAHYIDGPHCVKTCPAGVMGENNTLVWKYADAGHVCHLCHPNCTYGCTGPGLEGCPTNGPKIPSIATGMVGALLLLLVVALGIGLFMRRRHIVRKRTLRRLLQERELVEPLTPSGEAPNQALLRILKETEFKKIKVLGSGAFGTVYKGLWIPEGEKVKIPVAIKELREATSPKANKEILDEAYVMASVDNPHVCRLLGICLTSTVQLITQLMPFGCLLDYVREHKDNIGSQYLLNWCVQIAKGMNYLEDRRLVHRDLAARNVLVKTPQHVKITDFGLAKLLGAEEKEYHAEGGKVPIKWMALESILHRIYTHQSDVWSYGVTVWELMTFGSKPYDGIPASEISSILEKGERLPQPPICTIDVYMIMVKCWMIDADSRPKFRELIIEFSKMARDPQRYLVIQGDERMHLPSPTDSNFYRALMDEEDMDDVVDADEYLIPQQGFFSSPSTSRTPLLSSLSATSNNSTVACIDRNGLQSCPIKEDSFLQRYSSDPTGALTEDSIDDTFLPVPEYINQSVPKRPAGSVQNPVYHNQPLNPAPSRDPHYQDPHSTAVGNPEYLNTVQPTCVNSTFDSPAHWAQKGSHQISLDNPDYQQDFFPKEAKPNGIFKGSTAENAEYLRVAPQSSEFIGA
In short: (§2)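 Testing covers a ten-concentration range beginning at 3 μM, performed once per concentration at an ATP level of 10 μM.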

EGFR L858R/T790M = EGFR L858R/T790M (Homo sapiens, UniProt P00533, L858R/T790M); experiment: Kinase inhibitory activity against EGFR bearing the L858R/T790M double mutation; assay type: biochemical; conditions: 10 pt curves, 3 μM top concentration, 10 μM ATP; read-out: IC50 for kinase inhibition, EGFR L858R T790M
Chain of EGFR L858R/T790M (P00533 25-1210 T790M/L858R): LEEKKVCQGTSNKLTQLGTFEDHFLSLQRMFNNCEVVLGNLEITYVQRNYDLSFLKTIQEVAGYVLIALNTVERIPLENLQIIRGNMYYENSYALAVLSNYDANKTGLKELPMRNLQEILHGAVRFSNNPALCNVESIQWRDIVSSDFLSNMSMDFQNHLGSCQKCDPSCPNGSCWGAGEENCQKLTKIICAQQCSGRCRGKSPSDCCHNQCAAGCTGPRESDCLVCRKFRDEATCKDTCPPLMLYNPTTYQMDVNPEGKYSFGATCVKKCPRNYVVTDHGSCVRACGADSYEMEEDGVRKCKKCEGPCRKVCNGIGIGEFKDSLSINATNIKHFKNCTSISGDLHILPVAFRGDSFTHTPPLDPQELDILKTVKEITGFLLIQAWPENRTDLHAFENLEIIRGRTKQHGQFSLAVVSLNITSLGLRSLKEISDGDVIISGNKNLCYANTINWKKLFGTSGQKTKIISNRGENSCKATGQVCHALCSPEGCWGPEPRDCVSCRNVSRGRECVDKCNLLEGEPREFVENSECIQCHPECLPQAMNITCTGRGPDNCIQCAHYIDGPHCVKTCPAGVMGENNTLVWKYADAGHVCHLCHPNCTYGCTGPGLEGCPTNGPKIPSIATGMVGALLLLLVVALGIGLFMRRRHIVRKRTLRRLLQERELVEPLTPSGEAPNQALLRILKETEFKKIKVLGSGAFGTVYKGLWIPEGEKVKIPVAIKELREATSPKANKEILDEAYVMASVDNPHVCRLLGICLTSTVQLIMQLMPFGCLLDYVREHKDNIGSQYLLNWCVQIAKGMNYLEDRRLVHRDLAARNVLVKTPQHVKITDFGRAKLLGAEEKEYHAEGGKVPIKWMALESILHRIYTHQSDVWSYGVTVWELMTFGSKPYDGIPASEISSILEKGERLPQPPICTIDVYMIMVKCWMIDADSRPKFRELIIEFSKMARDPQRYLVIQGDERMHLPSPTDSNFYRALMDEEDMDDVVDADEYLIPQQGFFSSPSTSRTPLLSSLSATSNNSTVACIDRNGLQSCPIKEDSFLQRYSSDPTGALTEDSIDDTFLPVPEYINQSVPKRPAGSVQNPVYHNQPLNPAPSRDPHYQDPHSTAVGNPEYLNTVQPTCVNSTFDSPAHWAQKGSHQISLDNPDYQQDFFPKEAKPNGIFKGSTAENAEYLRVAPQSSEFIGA
In short: as §2

EGFR L858R = EGFR L858R (Homo sapiens, UniProt P00533, L858R); experiment: Kinase inhibitory activity against EGFR bearing the L858R mutation; assay type: biochemical; conditions: 10 pt curves, 3 μM top concentration, 10 μM ATP; read-out: IC50 for kinase inhibition, EGFR L858R
Chain of EGFR L858R (P00533 25-1210 L858R): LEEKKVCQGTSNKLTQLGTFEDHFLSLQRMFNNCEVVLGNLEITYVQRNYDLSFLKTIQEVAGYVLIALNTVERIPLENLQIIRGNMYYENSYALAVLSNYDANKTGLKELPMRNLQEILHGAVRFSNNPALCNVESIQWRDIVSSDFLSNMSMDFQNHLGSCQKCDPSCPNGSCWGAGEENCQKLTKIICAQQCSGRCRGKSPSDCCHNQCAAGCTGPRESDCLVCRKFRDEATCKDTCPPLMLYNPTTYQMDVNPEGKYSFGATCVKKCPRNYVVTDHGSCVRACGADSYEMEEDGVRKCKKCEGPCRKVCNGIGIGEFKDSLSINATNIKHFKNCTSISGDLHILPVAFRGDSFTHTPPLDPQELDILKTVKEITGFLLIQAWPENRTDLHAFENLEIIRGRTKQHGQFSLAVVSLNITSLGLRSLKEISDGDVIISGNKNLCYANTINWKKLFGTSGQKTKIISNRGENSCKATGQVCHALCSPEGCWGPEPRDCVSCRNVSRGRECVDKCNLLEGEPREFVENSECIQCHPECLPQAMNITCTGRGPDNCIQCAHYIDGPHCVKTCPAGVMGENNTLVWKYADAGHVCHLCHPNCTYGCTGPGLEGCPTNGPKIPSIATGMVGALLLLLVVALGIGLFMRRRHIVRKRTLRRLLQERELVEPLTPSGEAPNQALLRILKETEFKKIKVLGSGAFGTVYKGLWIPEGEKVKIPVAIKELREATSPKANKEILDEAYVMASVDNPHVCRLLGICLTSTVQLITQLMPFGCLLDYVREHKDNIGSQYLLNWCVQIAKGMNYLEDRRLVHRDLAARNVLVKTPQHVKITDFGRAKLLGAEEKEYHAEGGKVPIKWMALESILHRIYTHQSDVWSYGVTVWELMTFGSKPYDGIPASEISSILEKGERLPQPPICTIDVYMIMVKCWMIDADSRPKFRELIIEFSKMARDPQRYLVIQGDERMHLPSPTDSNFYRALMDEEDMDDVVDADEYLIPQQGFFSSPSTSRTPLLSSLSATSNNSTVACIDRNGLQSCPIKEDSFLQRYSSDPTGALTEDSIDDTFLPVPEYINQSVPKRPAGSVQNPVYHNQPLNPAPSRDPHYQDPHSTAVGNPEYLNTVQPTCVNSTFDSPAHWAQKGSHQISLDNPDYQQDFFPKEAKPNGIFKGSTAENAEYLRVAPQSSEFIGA
In short: as §2

Row | SMILES | GI50 [2] [nM] | GI50 [3] [nM] | IC50 [4] [nM] | IC50 (EGFR L858R/T790M) [nM] | IC50 (EGFR L858R) [nM] | IC50 [1] [nM]
1 | CNC(=O)/C=C\C(=O)Nc1ccc(OC)c(Nc2ncc(Cl)c(Nc3ccccc3P(C)(C)=O)n2)c1 [Example 110, N1-(3-((5-chloro-4-((2-(dimethylphosphoryl)phenyl)amino)pyrimidin-2-yl)amino)-4-methoxyphenyl)-N4-methylmaleamide] | < 50 | 101 to 250 | ≥ 250 | < 50 | < 50 | ≥ 250
2 | COCC#CC(=O)Nc1cc(Nc2ncc(Cl)c(Nc3ccccc3P(C)(C)=O)n2)c(OC)cc1N1CCC(N(C)C)C1 (stereo not drawn) [Example 111, N-(5-((5-chloro-4-((2-(dimethylphosphoryl)phenyl)amino)pyrimidin-2-yl)amino)-2-(3-(dimethylamino)pyrrolidin-1-yl)-4-methoxyphenyl)-4-methoxybut-2-ynamide] | < 50 | < 50 | < 50 | < 50 | < 50 | ≥ 250
3 | CC#CC(=O)Nc1cc(Nc2ncc(Cl)c(Nc3ccccc3P(C)(C)=O)n2)c(OC)cc1N1CCC(N(C)C)C1 (stereo not drawn) [Example 112, N-(5-((5-chloro-4-((2-(dimethylphosphoryl)phenyl)amino)pyrimidin-2-yl)amino)-2-(3-(dimethylamino)pyrrolidin-1-yl)-4-methoxyphenyl)but-2-ynamide] | < 50 | 50 to 100 | < 50 | < 50 | < 50 | ≥ 250
4 | COc1cc(N2CCOCC2)c(NC(=O)C#CCCN(C)C)cc1Nc1ncc(Cl)c(Nc2ccccc2P(C)(C)=O)n1 [Example 114, N-(5-((5-chloro-4-((2-(dimethylphosphoryl)phenyl)amino)pyrimidin-2-yl)amino)-4-methoxy-2-morpholinophenyl)-5-(dimethylamino)pent-2-ynamide] | < 50 | < 50 | < 50 | < 50 | < 50 | ≥ 250
5 | COCCC#CC(=O)Nc1cc(Nc2ncc(Cl)c(Nc3ccccc3P(C)(C)=O)n2)c(OC)cc1N1CCOCC1 [Example 115, N-(5-((5-chloro-4-((2-(dimethylphosphoryl)phenyl)amino)pyrimidin-2-yl)amino)-4-methoxy-2-morpholinophenyl)-5-methoxypent-2-ynamide] | < 50 | < 50 | < 50 | < 50 | < 50 | ≥ 250
6 | C=CC(=O)Nc1cc(Nc2ncc(Cl)c(Nc3ccccc3P(C)(C)=O)n2)c(OC)cc1C#CC(C)(C)N1CCCC1 [Example 116, N-(5-((5-chloro-4-((2-(dimethylphosphoryl)phenyl)amino)pyrimidin-2-yl)amino)-4-methoxy-2-(3-methyl-3-(pyrrolidin-1-yl)but-1-yn-1-yl)phenyl)acrylamide] | < 50 | < 50 | 50 to 100 | < 50 | < 50 | ≥ 250
7 | C=CC(=O)Nc1ccc(OCCN(C)C)c(Nc2ncc(Cl)c(Nc3ccccc3P(C)(C)=O)n2)c1 [Example 117, N-(3-((5-chloro-4-((2-(dimethylphosphoryl)phenyl)amino)pyrimidin-2-yl)amino)-4-(2-(dimethylamino)ethoxy)phenyl)acrylamide] | ≥ 250 | ≥ 250 | ≥ 250 | ≥ 250 | ≥ 250 | ≥ 250
8 | COc1cc(N2CCOCC2)c(NC(=O)C#CCCN2CCN(C)CC2)cc1Nc1ncc(Cl)c(Nc2ccccc2P(C)(C)=O)n1 [Example 118, N-(5-((5-chloro-4-((2-(dimethylphosphoryl)phenyl)amino)pyrimidin-2-yl)amino)-4-methoxy-2-morpholinophenyl)-5-(4-methylpiperazin-1-yl)pent-2-ynamide] | < 50 | < 50 | < 50 | < 50 | < 50 | ≥ 250
9 | COc1cc(N2CCCC2)c(NC(=O)C#CCCN2CCN(C)CC2)cc1Nc1ncc(Cl)c(Nc2ccccc2P(C)(C)=O)n1 [Example 119, N-(5-((5-chloro-4-((2-(dimethylphosphoryl)phenyl)amino)pyrimidin-2-yl)amino)-4-methoxy-2-(pyrrolidin-1-yl)phenyl)-5-(4-methylpiperazin-1-yl)pent-2-ynamide] | 101 to 250 | 101 to 250 | < 50 | < 50 | < 50 | ≥ 250
10 | COCC1CCCN1CCC#CC(=O)Nc1cc(Nc2ncc(Cl)c(Nc3ccccc3P(C)(C)=O)n2)c(OC)cc1N1CCOCC1 (stereo not drawn) [Example 122, N-(5-((5-chloro-4-((2-(dimethylphosphoryl)phenyl)amino)pyrimidin-2-yl)amino)-4-methoxy-2-morpholinophenyl)-5-(2-(methoxymethyl)pyrrolidin-1-yl)pent-2-ynamide] | < 50 | < 50 | < 50 | < 50 | < 50 | ≥ 250
11 | C=CC(=O)Nc1ccc(OC)c(Nc2ncc(Cl)c(Nc3ccc(OCCN(C)C)cc3P(C)(C)=O)n2)c1 [Example 125, N-(3-((5-chloro-4-((4-(2-(dimethylamino)ethoxy)-2-(dimethylphosphoryl)phenyl)amino)pyrimidin-2-yl)amino)-4-methoxyphenyl)acrylamide] | < 50 | < 50 | < 50 | < 50 | < 50 | ≥ 250
12 | C=CC(=O)Nc1ccc(OC)c(Nc2ncc(Cl)c(Nc3ccc(OCCCN(C)C)cc3P(C)(C)=O)n2)c1 [Example 126, N-(3-((5-chloro-4-((4-(3-(dimethylamino)propoxy)-2-(dimethylphosphoryl)phenyl)amino)pyrimidin-2-yl)amino)-4-methoxyphenyl)acrylamide] | < 50 | < 50 | < 50 | < 50 | < 50 | ≥ 250

Now from value to compound, other results behind:

Row | GI50 [2] [nM] | GI50 [3] [nM] | IC50 [4] [nM] | IC50 (EGFR L858R/T790M) [nM] | IC50 (EGFR L858R) [nM] | SMILES | IC50 [1] [nM]
13 | < 50 | < 50 | < 50 | < 50 | < 50 | C=CC(=O)Nc1cc(Nc2ncc(C3CC3)c(Nc3ccccc3P(C)(C)=O)n2)c(OC)cc1N(C)CCN(CC)CC [Example 120, N-(5-((5-cyclopropyl-4-((2-(dimethylphosphoryl)phenyl)amino)pyrimidin-2-yl)amino)-2-((2-(diethylamino)ethyl)(methyl)amino)-4-methoxyphenyl)acrylamide] | ≥ 250
14 | < 50 | < 50 | < 50 | < 50 | < 50 | C=CC(=O)Nc1cc(Nc2ncc(Cl)c(Nc3ccccc3P(C)(C)=O)n2)c(OC)cc1OC(CF)CN(CC)CC (stereo not drawn) [Example 121, N-(5-((5-chloro-4-((2-(dimethylphosphoryl)phenyl)amino)pyrimidin-2-yl)amino)-2-((1-(diethylamino)-3-fluoropropan-2-yl)oxy)-4-methoxyphenyl)acrylamide] | ≥ 250
15 | < 50 | < 50 | < 50 | < 50 | < 50 | C=CC(=O)Nc1cc(Nc2ncc(Cl)c(Nc3ccccc3P(C)(C)=O)n2)c(OC)cc1OC1CCCN(CCOC)C1 (stereo not drawn) [Example 123, N-(5-((5-chloro-4-((2-(dimethylphosphoryl)phenyl)amino)pyrimidin-2-yl)amino)-4-methoxy-2-((1-(2-methoxyethyl)piperidin-3-yl)oxy)phenyl)acrylamide] | ≥ 250
16 | < 50 | < 50 | < 50 | < 50 | < 50 | C=CC(=O)Nc1cc(Nc2ncc(Cl)c(Nc3ccccc3P(C)(C)=O)n2)c(OC)cc1C#CCN(C)C [Example 124, N-(5-((5-chloro-4-((2-(dimethylphosphoryl)phenyl)amino)pyrimidin-2-yl)amino)-2-(3-(dimethylamino)prop-1-yn-1-yl)-4-methoxyphenyl)acrylamide] | ≥ 250
17 | < 50 | < 50 | < 50 | < 50 | < 50 | C=CC(=O)Nc1cc(Nc2ncc(Cl)c(Nc3ccccc3P(C)(C)=O)n2)c(OC)cc1C#CCCN(C)C [Example 128, N-(5-((5-chloro-4-((2-(dimethylphosphoryl)phenyl)amino)pyrimidin-2-yl)amino)-2-(4-(dimethylamino)but-1-yn-1-yl)-4-methoxyphenyl)acrylamide] | ≥ 250

Reference: patent publication US9834571B2, “Compounds for inhibiting cell proliferation in EGFR-driven cancers” (ARIAD Pharmaceuticals, Inc., priority 2012, dated 2017)
